Reference: patent US20050249831A1, “Herbal extract comprising a mixture of saponins obtained from sapindus trifoliatus for anticonvulsant activity” (priority 2002, published 2005)

Tests used:
[1] = tested on: MES induced seizures in rats; experiment: Maximal Electroshock Seizure (MES) model; assay type: in vivo; details: Rattus norvegicus, ip, read-out: ED50, protection to hind limb tonic extension due to electroshock
Experimental: In order to evaluate the efficacy of the extract of Sapindus trifoliatus, for its prophylactic therapeutic potential in migraine, its role as an anticonvulsant was evaluated in an in vivo animal model. […]
Male Wistar rats (150-200 g) were used in the study. […] Mortality if any was recorded. […]
Values of incidence and mortality were expressed as ratios and analysed by Fisher's test. The latency for onset and duration of hind limb extension of maximal electroshock induced convulsions were averaged, expressed as mean±standard deviation. Mean values were analysed by one way ANOVA followed by Dunnett ‘t’ test for multiple comparison or Students ‘t’ test for comparing two means. […] ED50 values were calculated by probit analysis [Finney, D. J., Probit Analysis, Cambridge University Press, London, 1947].

[2] = tested on: PTZ induced seizures in rats; assay type: in vivo; details: 4 mg/kg, i.p., 2 ml/kg, standard control

SMILES	ED50 [1] [mg/kg]	Protection against PTZ induced seizures [2]
CCCC(CCC)C(=O)[O-].[Na+] [Sodium valproate]	67.7	–
CN1C(=O)CN=C(c2ccccc2)c2cc(Cl)ccc21 [diazepam, Diazepam]	–	significantly protected
